From PMC6312923 (Life Science Alliance, 2018)

B1: Cdt2^PIP-3A: Cdt2 with I709, Y712, and F713 all mutated to alanine (protein, UniProt Q9NZJ0 1-730, looked up, variant I709A Y712A F713A)
Denticleless protein homolog: MLFNSVLRQPQLGVLRNGWSSQYPLQSLLTGYQCSGNDEHTSYGETGVPVPPFGCTFSSAPNMEHVLAVANEEGFVRLYNTESQSFRKKCFKEWMAHWNAVFDLAWVPGELKLVTAAGDQTAKFWDVKAGELIGTCKGHQCSLKSVAFSKFEKAVFCTGGRDGNIMVWDTRCNKKDGFYRQVNQISGAHNTSDKQTPSKPKKKQNSKGLAPSVDFQQSVTVVLFQDENTLVSAGAVDGIIKVWDLRKNYTAYRQEPIASKSFLYPGSSTRKLGYSSLILDSTGSTLFANCTDDNIYMFNMTGLKTSPVAIFNGHQNSTFYVKSSLSPDDQFLVSGSSDEAAYIWKVSTPWQPPTVLLGHSQEVTSVCWCPSDFTKIATCSDDNTLKIWRLNRGLEEKPGGDKLSTVGWASQKKKESRPGLVTVTSSQSTPAKAPRAKCNPSNSSPSSAACAPSCAGDLPLPSNTPTFSIKTSPAKARSPINRRGSVSSVSPKPPSSFKMSIRNWVTRTPSSSPPITPPASETKIMSPRKALIPVSQKSSQAEACSESRNRVKRRLDSSCLESVKQKCVKSCNCVTELDGQVENLHLDLCCLAGNQEDLSKDSLGPTKSSKIEGAGTSISEPPSPISPYASESCGTLPLPLRPCGEGSEMVGKENSSPENKNWLLAMAAKRKAENPSPRSPSSQTPNSRRQSGKKLPSPVTITPSSMRKACTAAHRKSQEDFCGPEHSTEL
modifications: FLAG tag
notes: Cdt2 with I709, Y712, and F713 all mutated to alanine

Legend:
Type in all cases: cell-based, human
PCNA = assay: Co-immunoprecipitation of PCNA with FLAG-tagged Cdt2 constructs; settings: for interaction with PCNA (reverse IP, anti-Myc): Myc-PCNA co-transfected, HEK293; for interaction with PCNA (anti-FLAG IP): cross-linked cells, 3FLAG fusions, no UV
From the text: Before cell lysate preparation, cells were cross-linked.
(§1) Figure 3. […] HEK293 cells were transfected with plasmids expressing the indicated Cdt2 fused to a C-terminal FLAG tag, cross-linked, and precipitated with anti-FLAG antibodies (arrows). […] The bands in the blank lanes for Cul4A blotting correspond to the cross-reacting bands to pre-stained marker. […] HEK293 cells were transfected with the indicated plasmids and treated as in A. * indicates nonspecific bands derived from IgGs. (C) A schematic drawing of the Cdt2 domain structure highlighting the C-terminal PIP box and a sequence alignment of PIP boxes in various organisms. The alanine-changed PIP box mutant of Cdt2 was shown (PIP-3A) together with Cdt1 PIP box. (D) HEK293 cells were transfected with Cdt2^WT or PIP box mutant (Cdt2^PIP-3A) C-terminally fused to a FLAG tag, treated as in B, and Cdt2 was precipitated with anti-FLAG resin.
Control or Cdt2-FLAG expressing 293 cells that were UV irradiated (50 J/m^2), or not UV irradiated, or in the middle S phase (5 h after release from aphidicolon arrest) were fixed with 0.02% formaldehyde for 10 min, lysed using 0.1% Triton X-100-containing modified cytoskeleton (mCSK) buffer (10 mM Pipes, pH 7.9, 100 mM NaCl, 300 mM sucrose, 0.1% [vol/vol] Triton X-100, 1 mM phenylmethylsulfonyl fluoride, 10 mM β-glycerophosphate, 1 mMNa3VO4, 10 mM NaF), and then sonicated. After centrifugation (120,000g, Beckman Type 45Ti rotor, for 20 min at 4°C), the supernatants were mixed with anti-FLAG antibody-conjugated magnetic beads (M8823; Sigma-Aldrich) for 1 h at 4°C to obtain immunoprecipitates. The precipitate was washed with ice-cold 0.1% Triton X-100 containing mCSK buffer and subsequently suspended in SDS sample buffer.

[1] = tested on: chromatin-containing fraction, HEK293 cells; assay: Chromatin fractionation of Cdt2; settings: stable HEK293, Western blot
Procedure: (§2) Figure 6. The Cdt2 PIP box is important for its recruitment to DNA damage sites and replication foci and for poly-ubiquitination activity. (A) HEK293 and stable Cdt2^WT or Cdt2^PIP-3A cells were locally UV irradiated, and stained for XPA and FLAG (Cdt2). XPA-positive spots were examined for FLAG signal, and its frequency was counted (%). More than 50 spots were examined. bar:10 μm. […] Bar: 10 μm. […] (D) Whole-cell extracts were prepared from HEK293 and stably transfected cells of Cdt2^WT or Cdt2^PIP-3A cells, separated into soluble (Sup) and chromatin-containing insoluble (Ppt) fractions, and were examined for indicated proteins. The asterisk indicates nonspecific bands. (E) HEK293 and stably transfected cells of Cdt2^WT or Cdt2^PIP-3A were treated with MG132 for 3 h. Whole-cell extracts (WCE) were prepared, separated into soluble (Sup) and insoluble (Ppt) fractions, and blotted with the indicated antibodies.
Cell extracts were prepared using 0.1% Triton X-100–containing mCSK buffer (200 μg of total protein in 400–800 μl). After centrifugation (17,900g for 10 min at 4°C), soluble and chromatin-containing pellet fractions were obtained. The pellets were washed with ice-cold 0.1% Triton X-100–containing mCSK buffer and subsequently suspended in SDS sample buffer.

Cdt1 poly-ubiquitination = assay: Poly-ubiquitination of Cdt1 in HEK293 cells; settings: for poly-ubiquitinated Cdt1 level: HEK293, MG132 3 h, asynchronous; for poly-ubiquitination of Cdt1 after UV: HEK293, endogenous Cdt2 depleted (siCdt2), MG132 25 μM, UV 20 J/m^2
Procedure: as §2
Figure S6. Cdt2 PIP box is important for its recruiting to DNA replication sites and its poly-ubiquitination activity in HEK293 cells. […] (B) Poly-ubiquitination after UV irradiation. HEK293 and its stables expressing Cdt2^WT or Cdt2^PIP-3A were transfected with siCdt2 or control (siLuc). Three days later, cells were treated with MG132 (25 μM), and 10 min later irradiated with UV (20 J/m^2). Cells were collected at the indicated time points, and used for Western blotting with indicated antibodies.
To consider this possibility, asynchronously growing control HEK293 cells and cells expressing Cdt2^WT or Cdt2^PIP-3A were treated with proteasome inhibitor MG132 and the levels of poly-ubiquitinated Cdt1 were examined. […] Cdt2^PIP-3A-expressing cells however had reduced level of both poly-ubiquitinated Cdt1 and p21 on chromatin.
Next, we examined the accumulation of poly-ubiquitinated Cdt1 after UV irradiation. For this experiment, the endogenous Cdt2 was depleted with an siRNA targeted to the 3′ UTR to assay for the activity of introduced Cdt2. Cells were treated with MG132, irradiated with UV and the levels of poly-ubiquitinated Cdt1 were monitored by Western blotting. In HEK293 cells treated with control siRNA, poly-ubiquitinated Cdt1 was detected 15 min after irradiation (Fig S6B). […] The defect was rescued by Cdt2^WT expression.

HEK293 cells, PCNA foci = assay: Co-localization of Cdt2 with PCNA foci (S phase) in HEK293 cells; settings: stable HEK293, asynchronous, pre-extracted
From the text: XPA, a component of nucleotide excision repair, staining was used to confirm that similar extents of DNA damage were induced both in Cdt2^WT- and Cdt2^PIP-3A-expressing cells. […] A similar percentage of PCNA-positive S-phase cells was detected both in Cdt2^1–730/WT-expressing cells and Cdt2^PIP-3A-expressing cells (Fig S6). […] More than 80% of PCNA-positive cells were co-stained with Cdt2^WT, with the early S-phase cells displaying stronger Cdt2^WT staining than the late S-phase cells as reported ([Nukina et al, 2018]) (Figs 6B and C, and S6A).
as §2, with “(E) HEK293 and stably transfected cells of Cdt2^WT or Cdt2^PIP-3A were treated with MG132 for 3 h. Whole-cell extracts (WCE) were prepared, separated into soluble (Sup) and insoluble (Ppt) fractions, and blotted with the indicated antibodies.” left out
For Western blotting, whole-cell lysates were prepared by lysing cell pellets directly in SDS–PAGE buffer. […] Protein levels were analysed by ImageJ software.

Cdt1 = assay: Co-immunoprecipitation of Cdt1 with FLAG-tagged Cdt2; settings: anti-FLAG IP, HEK293, with or without UV irradiation
From the text: as §1
Next, we examined the interaction of CRL4^Cdt2 ligase with its target protein Cdt1, using HEK293 cells alone and cells transfected with Cdt2^WT or Cdt2^PIP-3A, with or without UV irradiation. […]

Molecule | interaction with PCNA (reverse IP, anti-Myc) (PCNA) | interaction with PCNA (anti-FLAG IP) (PCNA) | recovery in chromatin-containing fraction [1] | poly-ubiquitinated Cdt1 level (Cdt1 poly-ubiquitination) | poly-ubiquitination of Cdt1 after UV (Cdt1 poly-ubiquitination) | PCNA-positive cells co-stained with Cdt2 (HEK293 cells, PCNA foci) | co-precipitation of PCNA and Cdt1 (Cdt1) | Cdt2 signal in PCNA foci (HEK293 cells, PCNA foci)
Cdt2: Cdt2 tagged with GFP, transiently expressed in MCF7 cells | co-precipitated with Myc-PCNA | interact with PCNA | recovered in a chromatin-containing fraction | clearly detected | rescued | More than 80% | both PCNA and Cdt1 were precipitated, and their amounts were notably increased after UV irradiation | 
B1 | not detected in the precipitates | lost almost entirely | undetectable | reduced | defective in poly-ubiquitination of Cdt1 |  | neither Cdt1 nor PCNA co-precipitated well | almost no signal was detected
